The values below come from US6410029B1, “2-methoxyestradiol-induced apoptosis in cancer cells” (Board of Regents, The University of Texas System, priority 1996, dated 2002).

Structures are written as SMILES. pIC50: −log10 of the molar value.

The test system of data set [1] is p53 protein in normal bronchial epithelial cell lines. Briefly: Western blot analysis of p53 protein, normal bronchial epithelial cell lines. The format is cell-based. The method, then:
(§1) Control and drug treated cells were washed in cold PBS, lysed in Laemmli's sample buffer, and subjected to western blot analysis as described previously (Mukhopadhyay et al., 1995). Blots were probed with Pab 1801 anti-p53 monoclonal antibody (Oncogene Sciences, Uniondale, N.Y.). The blot was further probed with anti-WAF1 monoclonal antibody (p21).
(§2) Blots were washed in Tris-buffered saline containing 0.1% Tween 20, incubated with horse radish peroxidase conjugated to secondary antibody and specific immunocomplex was detected by enhanced chemiluminescence technique according to the manufacturer's directions (Amersham, Arlington, Ill.). Blots were reprobed with anti-actin monoclonal antibody (Amersham) to show the equal protein loading.
(A western blot detects proteins with antibodies after separation by electrophoresis.)

The subject of data set [2] is H322 cells (p53 mutated). Put plainly: Growth assay, H322 cell line. The format is cell-based, human. The method, then: (§3) Non-small cell lung cancer cell lines H460 (wild-type p53), H358 (p53 deleted), and […] (p53 mutant) were obtained from Drs. Adi Gazdar and John Minna. A549 (wild-type p53) was obtained from ATCC (Rockville, Md.). All cell lines were grown in RPMI 1640 media supplemented with 5% heat inactivated fetal bovine serum and maintained at 5% CO2. All the studies were done when the cells were 70% confluent.
(§4) For cell growth measurements, 5×10^4 cells were plated in each well of six well plates. Control and treated cells were trypsinized and counted using a hemocytotometer. Studies were performed in triplicate.
(§5) The inventors tested the effect of 2-MeOE2 treatment on the growth characteristics of four different human lung cancer cell lines differing in their p53 status: H3.58 (p53 deleted), H322 (p53 mutated), H460 (wild-type p53), A549 (wild-type p53). […]

Data set [3] deals with breast cancer cell line MCF-7. The settings on record: cited from earlier work.
Another data set relates to p53 mRNA. Briefly: Northern blot analysis of p53 mRNA. As to conditions: H460, 48 h after treatment.
In another data set the test system is wild-type p53 protein. Put plainly: Western blot analysis of p53 protein, wild-type p53 lung cancer cell lines. The format is cell-based, human. As to the method: as §1, §2
For data set [4], the system named is A549 cells (wild-type p53). Put plainly: Growth assay, A549 cell line. The format is cell-based, human.
In a further data set the test system is p53 DNA binding activity. Put plainly: Electrophoretic mobility shift assay (EMSA), p53 DNA binding. As to conditions: H460 cells, 5 μm for 48 h. Format: cell-based, human. As to the method: Electrophoretic mobility shift assays (EMSA) were performed using nuclear extract prepared from the H460 cell line. Nuclear extracts were prepared from untreated control and 2-MeOE2 treated cells. Cells were washed in ice cold PBS and scraped into 0.5 ml nuclei harvesting buffer (10 mM HEPES, pH 7.9; 10 mM KCl; 0.1 mM ETA, 1 mM dithiothretol (DTT), 0.1% NP-40; 0.5 mM phenyl methyl-sulfonyl fluoride; […]; 0.5 mg/ml benzamidine). After 30 min of incubation on ice, lysates were centrifuged for 1 min at 4° C. The nuclear pellet was resuspended in nuclear harvesting buffer containing 0.4 M NaCl and incubated on ice for 1 h. The nuclear extracts were microfuged at 12,000 rpm for 30 min at 4° C. and supernatant was stored at −70° C.
To perform electrophoretic mobility shift assays (EMSA), 10 μg of nuclear extract was mixed gently with 0.1 mg of poly (dl-dC) and 1 ng of ^32P-end labeled p53 consensus binding oligonucleotide in binding buffer (25 mM HEPES; pH 7.9; 0.5 mMEDTA; 0.5 mMDTT; 1% NP-40; 5% glycerol; 50 mM NaCl) in total reaction volume 20 μl. One microliter of (1 μg) p53 monoclonal antibody DO1 (Santa Cruz Biotechnology Inc., Calif.) was added to the DNA after binding and incubated for another 15 min to show the supershift. DNA-protein complexes were resolved in native 4.5% polyacrylamide gels. […]
Background: Mobility shift assays separate free from complexed probe on a gel.

Data set [5] has as its system H460 cells (wild-type p53). Briefly: Growth assay, H460 cell line. Format: cell-based, human. The method, then:
as §3, §4
The inventors tested the effect of 2-MeOE2 treatment on the growth characteristics of four different human lung cancer cell lines differing in their p53 status: H3.58 (p53 deleted), H322 (p53 mutated), H460 (wild-type p53), A549 (wild-type p53).
The cells were treated with 5 μM of 2-MeOE2 or 16-epiestriol (another metabolite of estrogen) and growth of the cells was monitored for five days (FIG. 1).

The test system of data set [6] is normal human skin fibroblasts. As to conditions: even at a 100 μm concentration; cited from earlier work.
In data set [7] the test system is H460 cells. Briefly: TUNEL assay (TdT staining). The format is cell-based, human. As to conditions: H460 cells grown in chamber slides. The method, then: Terminal deoxynucleotidyl transferase mediated dUTP-biotin nick end labeling (TUNEL) assay was performed as described previously (Fujiwara et al., 1994). […] Cells were incubated in TdT buffer (30 mM Tris Hcl, pH 7.2; 140 mM cacodylate, 1 mM cobalt chloride) and incubated with biotinylated dUTP (Boehringer Mannheim, Indianapolis, Ind.) and 100 U/ml TdT enzyme (Bethesda Research Laboratory) for 1 h at 37° C. The avidin-biotin complex was detected using the Vectastain Elite kit (Vector Laboratory, Burlingame, Calif.), by the diaminobenzidine-H2O2 method.

For data set [8], the system named is colchicine binding site of the tubulin filaments. As to conditions: MCF-7 cell line; cited from earlier work.
For another data set, the system named is A549 cells. Briefly: Apoptosis by FACS analysis, A549 cells. A general note: Flow cytometry measures light scatter and fluorescence of single cells or particles in a stream.
The test system of a further data set is p21WAF1/CIP1 protein. Put plainly: Western blot with WAF1 monoclonal antibody (p21). Format: cell-based, human. As to the method: as §1, §2
The test system of the next data set is lung cancer cell lines. Put plainly: Cell cycle analysis by flow cytometry. The format is cell-based, human. As to conditions: PI labeling, FACScan, 48 h treatment. As to the method:
It has been shown that induction of p21 causes p53-mediated G1 arrest and induces apoptosis. […] The cells were labeled with PI and cell cycle was analyzed by FACScan.

For data set [9], the system named is H322 cells (p53 mutated). Briefly: Apoptosis by FACS analysis, H322 cells. The settings on record: mutated cell line, after 48 h of 5 μm treatment.
Procedure: (§6) Control and treated cells were collected by trypsinization, washed in PBS and fixed in 70% ethanol overnight. The next day cells were rehydrated in PBS for 30 min, centrifuged, and resuspended in PBS. For DNA analysis, propidium iodide (Sigma) was added at 50 μg/ml, and the cells were incubated in the presence of RNase at 15 μg/ml for 30 min at 37° C. Flow cytometric analysis was carried out in a fluorescence-activated cell sorter (Coulter Epics Elite).
(§7) Cells also were stained with biotinylated UTP for TUNEL assay to monitor the DNA fragmentation. H460 cells were grown in chamber slides and treated with the drugs and TdT staining was performed as described in Materials and Methods.
For data set [10], the system named is endothelial cells. The settings on record: read-out: half-maximal inhibitory concentration (IC50); cited from earlier work.
Another data set concerns mutated p53 protein. Briefly: Western blot analysis of p53 protein, H322 cell line. The format is cell-based, human. As to the method:
as §1, §2

A further data set concerns H358 cells (p53 deleted). Briefly: Growth assay, H358 cell line. Format: cell-based, human. As to the method: as §3, §4, §5
The subject of data set [11] is normal bronchial epithelium. Briefly: Response of normal bronchial epithelium to 2-MeOE2 treatment. Format: cell-based.
Data set [12] has as its system H460 cells. Put plainly: Apoptosis by FACS analysis, H460 cells.
Procedure: as §6, §7
Data set [13] concerns endothelial cells. The settings on record: cited from earlier work.
The subject of another data set is solid tumors. The settings on record: cited from earlier work.
Setting [14] is: dose response studies, after 48 h, lung cancer cell lines.

Source text for p53 mRNA: Total RNA was isolated from the subconfluent cultures using the guanidinium thiocyanate method (Chomczynsky and Sacchi, 1987). Twenty micrograms of total RNA was electrophoresed in 1.4% agarose/MOPS formaldehyde gel, transferred to nylon membrane and hybridized to a radiolabeled p53 cDNA probe as described previously (Mukhopadyay and Roth, 1993).

Regarding `COc1cc2c(cc1O)CC[C@@H]1[C@@H]2CC[C@]2(C)[C@@H](O)CC[C@@H]12` [2-MeOE2, 2-methoxyestradiol], the “level of p53 protein” value in data set [1] is on record as “no increase”. Besides, the growth inhibitory effect entry in the data set with H322 cells (p53 mutated) [2] (5 μM, growth monitored for five days, H322 (p53 mutated)) is “virtually no growth inhibitory effect”; in [4] (5 μM, growth monitored for five days, A549 (wild-type p53)) it was “significant growth inhibitory effect”; in [5] (5 μM, growth monitored for five days, H460 (wild-type p53)), “significant growth inhibitory effect”; in the data set with H358 cells (p53 deleted) (5 μM, growth monitored for five days, H358 (p53 deleted)) it was “virtually no growth inhibitory effect”. Moreover, the “cell death during the growth assay” value was “only two dead cells” in the data set with H322 cells (p53 mutated) [2] (after 48 h, H322, crystal violet staining); “significant increase in cell death” in data set [4] (after 48 h, A549, crystal violet staining); “significant increase in cell death” in data set [5] (after 48 h, H460, crystal violet staining); “only two dead cells” with H358 cells (p53 deleted) (after 48 h, H358, crystal violet staining). Besides, the cytotoxic effect result in data set [3] is “cytotoxic effect”. Further, the “p53 mRNA levels” value in the data set with p53 mRNA was “no change”. Moreover, the “concentration that stimulated p53 to a maximum level” value in the data set on wild-type p53 protein (setting [14]) was found to be 5 µM. Further, the “increase of wild-type p53 protein levels” value with wild-type p53 protein (during 48 h of treatment, lung cancer cell lines carrying wild-type p53) is 6- to 8 fold. Moreover, the “p53 DNA binding activity in nuclear extract vs untreated control” value with p53 DNA binding activity was “three-fold increase”. For the same compound, the “effect on normal human skin fibroblasts” value in [6] is “no effect”. In addition, in the data set on H460 cells [7], the “DNA fragmentation (TUNEL, TdT staining)” value is “many apoptotic bodies”. For the same compound, the binding to tubulin entry in data set [8] is given as “bind to the colchicine binding site of the tubulin filaments”. The “peak representing apoptotic cells (PI, FACScan)” value in the data set with A549 cells (A549 cell line) and in the data set on H460 cells [12] (H460 cell line) was “A peak representing apoptotic cells appeared” in each case. Further, the “apoptosis (DNA strand breaks, UTP-labeled biotin / FITC-avidin)” value in the data set on A549 cells (A549 cells) and with H460 cells [12] (H460 cells) was “had undergone apoptosis” in each case. Besides, the apoptotic cell death with A549 cells (A549 cells, after 48 h of 5 μm treatment, FACS analysis) is roughly 48%; in the data set on H322 cells (p53 mutated) [9], “no effect”. For the same compound, the “increase in p21 protein expression” value in the data set on p21WAF1/CIP1 protein (A549 cell line) and with p21WAF1/CIP1 protein (H460 cell line) was 3-5 fold in each case. For the same compound, in the data set on p21WAF1/CIP1 protein (setting [14]), the “concentration that stimulated p21 to a maximum level” value worked out at 5 µM. In the data set on lung cancer cell lines, the “G1 arrest (cell cycle analysis)” value is on record as “no evidence of G1 arrest”. For the same compound, the pIC50 with endothelial cells [10] is 6.82. Besides, the “level of the mutated p53 protein” value in the data set with mutated p53 protein was “no increase”. In data set [11], the “changes in response to treatment (p53 increase, apoptosis)” value is given as “did not show the observed changes”. In the data set on endothelial cells [13], the angiogenesis in vitro result is “inhibits”. In addition, in the data set with endothelial cells [13] (in vitro), the endothelial cell migration result is “inhibits”. Moreover, the “general cytotoxicity in vivo” value in the data set on solid tumors (in vivo studies) is listed as “not associated with general cytotoxicity”. In the data set on solid tumors (oral administration, mice), the “capillary formation in solid tumors” value is given as “potent inhibition”. Also, the “growth of solid tumors” value in the data set on solid tumors (oral administration, mice) is recorded as “reduced growth”.
Take `C[C@]12CC[C@@H]3c4ccc(O)cc4CC[C@H]3[C@@H]1C[C@H](O)[C@@H]2O` [epistriol, 16-epiestriol, reference compound]: the “DNA fragmentation (TUNEL, TdT staining)” value with H460 cells [7] is on record as “little DNA fragmentation”. The “G1 arrest (cell cycle analysis)” value with lung cancer cell lines is reported as “no evidence of G1 arrest”.
